According to patent US5574006A, “Nasally administrable peptide compositions on hydroxyapatite carriers” (Dott Research Laboratory, priority 1993, dated 1996):

How the values were obtained:
[1] = set-up: species or system healthy male adults; conditions: in vivo
Description: A nasally administrable composition in powdery form was prepared by formulating salmon calcitonin as a physiologically active peptide at the rate of 200 MRC (IU) per 25 mg with hydroxyapatite as a carrier having a mean particle size ranging from 40 to 45 μm.
(§1) The resulting composition was nasally administered once at the dose of 25 mg to six healthy male adults and the blood (2.5 ml) was collected from each of the tested adults prior to administration and then at 5, 10, 15, 20, 30, 45, 60, 90, 120 and 180 minutes after administration. The concentration of the salmon calcitonin in each of the collected blood samples was assayed with a standard RIA assay kit.

[2] = set-up: species or system healthy male adults; conditions: in vivo; remark: listed apart in the source
Description: A nasally administrable composition in powdery form was prepared by formulating salmon calcitonin as a physiologically active peptide at the rate of 200 MRC (IU) per 25 mg with hydroxyapatite as a carrier.
as §1

[3] = system: blood sugar; experiment: Average fall of the blood sugar in rabbits after insulin administration; type: in vivo, New Zealand rabbits; conditions: S.C., 2 IU/rabbit
Description: The resulting composition was nasally administered once to six male New Zealand rabbits. The average fall of the blood sugar was measured and represented in percentage (%) at 0, 15, 30, 60, 120 and 180 minutes after administration. For comparison, 2 (IU)/rabbit of insulin was administered subcutaneously to six male New Zealand rabbits and the average fall of the blood sugar was measured and represented in […] (%) at 0, 60, 120, 240 and 360 minutes after administration.

Substance	absorption of calcitonin (in words) [1]	absorption of calcitonin through the nasal cavity (in words) [2]	Average fall of the blood sugar ([3]; 0 min) [%]	Average fall of the blood sugar ([3]; 60 min) [%]	Average fall of the blood sugar ([3]; 120 min) [%]	Average fall of the blood sugar ([3]; 240 min) [%]	Average fall of the blood sugar ([3]; 360 min) [%]
hydroxyapatite	effective to attain better absorption of calcitonin	effective to attain better absorption of calcitonin through the nasal cavity	–	–	–	–	–
insulin [Comparison]	–	–	100	57	56	84	94
